Experiments:
[1] = target: T1, Cytochrome P450 reductase (Homo sapiens, UniProt P16435); assay: Cytochrome P450 reductase assay of compound A; assay type: in vitro ADME; conditions: anaerobic conditions, over 8 h (FIG. 8)
T1 sequence (P16435 1-677): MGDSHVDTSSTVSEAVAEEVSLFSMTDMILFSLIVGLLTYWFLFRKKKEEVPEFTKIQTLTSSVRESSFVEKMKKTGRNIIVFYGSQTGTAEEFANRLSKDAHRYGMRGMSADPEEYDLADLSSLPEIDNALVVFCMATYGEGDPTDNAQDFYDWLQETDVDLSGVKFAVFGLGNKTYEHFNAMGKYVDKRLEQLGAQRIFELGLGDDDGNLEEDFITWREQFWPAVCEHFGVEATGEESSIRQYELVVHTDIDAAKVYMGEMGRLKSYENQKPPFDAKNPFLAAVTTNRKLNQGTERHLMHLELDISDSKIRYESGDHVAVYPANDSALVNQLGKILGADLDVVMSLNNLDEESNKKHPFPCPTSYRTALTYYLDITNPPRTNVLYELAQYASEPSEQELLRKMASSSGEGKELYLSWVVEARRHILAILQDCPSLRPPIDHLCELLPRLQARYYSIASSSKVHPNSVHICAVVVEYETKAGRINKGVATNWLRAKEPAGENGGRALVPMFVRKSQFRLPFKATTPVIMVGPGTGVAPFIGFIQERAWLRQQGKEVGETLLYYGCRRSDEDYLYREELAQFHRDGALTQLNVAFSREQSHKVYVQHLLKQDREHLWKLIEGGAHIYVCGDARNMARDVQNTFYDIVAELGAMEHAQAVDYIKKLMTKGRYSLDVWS
Experimental: Compound A was subject to a Cytochrome P450 reductase assay in accordance with the procedure of Cazares-Korner (CH-01 is a hypoxia-activated prodrug that sensitizes cells to hypoxia/reoxygenation through inhibition of Chk1 and Aurora A., ACS Chem. Biol. 2013 DOI:10.1021/cb4001537).
FIG. 8 records absorbance at 0, 2, 4 and 8 hours under hypoxic (FIG. 8a) and normoxic (FIG. 8b) conditions.

[2] = Fluorimetry of compound A and its reduced counterpart B; assay type: physicochemical; conditions: 50 μM in iPrOH, excitation wavelength 515 nm, (FIG. 6)
Experimental: Compound A (Example 7) was synthesised in accordance with Sun et at (Chem. Commun., 2013, 49, 3890-3892). Fluorescence spectra of the compound, as well as its reduced counterpart compound B, was confirmed by fluorimetry.
50 μM solutions of A and B were prepared in iPrOH and fluorimetry carried out using a Perkin Elmer Luminescence Spectrometer LS 50 B with an excitation wavelength of 515 nm. Results are depicted in FIG. 6.

[3] = tested on: RKO (colorectal) cancer cell lines; assay: Cell-based assay: incubation in RKO cells, HPLC of the lysate
Experimental: Compound 21 was administered to cells in culture and incubated in (a) hypoxic and (b) normoxic conditions.
RKO (colorectal) cancer cell lines were cultured in DMEM medium containing 10% FBS, penicillin (100 U/mL) and streptomycin (100 μg/mL). RKO cell line was originally obtained from the ATCC and routinely mycoplasma tested and found to be negative. Experiments were carried out with cells at 75% confluence.
Hypoxia Treatments were carried out in a Bactron II (Shell laboratories), In vivo 400 (Ruskinn), or Heracell mixed gas incubator (Fisher Scientific) depending on the level of hypoxia required.
HPLC Analysis HPLC (Waters 2695 system) comprised an RPB column (100 mm×3.2 mm, 35° C.). […] Detection used a photodiode array spectrophotometer (Waters 2996), a mass spectrometer (Waters Micromass ZQ mass spectrometer), and a UV spectrometer (Waters 296 diode array detector) scanning from 210 nm to 400 nm with a resolution set at 3.6 nm. Injections of 10 μL were made.

BRD4 = BRD4 (Homo sapiens, UniProt O60885); assay: AlphaScreen assay against BRD4; assay type: binding
[4] = target: T2, purified human cytochrome p450 reductase (Homo sapiens, UniProt P16435); assay: Purified reductase assay (hypoxic/normoxic incubation, HPLC); assay type: in vitro ADME; conditions: 250 nM
T2 construct: purchased Cypex
T2 sequence (P16435 1-677): T1 sequence (P16435 1-677)
Experimental: The bioreductive compound 18 (Example 1) was incubated with purified human cytochrome p450 reductase in hypoxic and normoxic conditions.
Bactosomal human NADPH-CYP reductase (Cypex, 12.7 mg/mL, 13900 nmol/min/mL) was used in combination with an NADPH-regenerating system (BD Biosciences), and the assay was carried out according to the manufacturer's protocol (BD Biosciences application note 467) at a compound 18 concentration of 250 nM. For hypoxic conditions, vials were deoxygenated by bubbling nitrogen prior to P450 addition and then transferred into a Bactron II (Shell laboratories). Samples were taken at different time points and analyzed by HPLC.

SMILES: N#CC(C#N)=C1C=C(/C=C/c2ccc(N=[N+]=[N-])cc2)Oc2ccccc21 [Compound A, (E)-2-(2-(4-azidostyryl)-4H-chromen-4-ylidene)malononitrile]
- reductive conversion to compound B [1]: trace reductive conversion to compound B
- difference in fluorescence emission between A and B [2]: ~650 fold

SMILES: CC(=O)Nc1ccc(OCc2c([N+](=O)[O-])ccc3ncccc23)cc1 [Compound 21, N-(4-((6-Nitroquinolin-5-yl)methoxy)phenyl)acetamide]
- melting point: 204 to 206 °C
- UV absorbance of the compound's peak in the cell lysate ([3]; hypoxia, HPLC (FIG. 3a)): hypoxia-dependent decrease in UV absorbance
- UV absorbance of the compound's peak in the cell lysate ([3]; normoxia, over 24 h, HPLC (FIG. 3b)): continued to increase

SMILES: Cc1noc(C)c1-c1cc(OCc2c([N+](=O)[O-])ccc3ncccc23)cc(C(O)c2ccccc2)c1 (stereo not drawn) [Compound 18, (3-(3,5-Dimethylisoxazol-4-yl)-5-((6-nitroquinolin-5-yl)methoxy)phenyl)(phenyl) methanol]
- decrease in potency vs compound 3 (BRD4; BRD4 AlphaScreen IC50, compound 18 vs compound 3): 2 fold
- IC50 (BRD4; same AlphaScreen assay): 749 nM
- reduction/fragmentation by human CYP reductase ([4]; hypoxic conditions, HPLC (FIG. 2a)): undergoes reduction by human CYP, including fragmentation to release compound 3
- reduction/fragmentation by human CYP reductase ([4]; normoxic conditions, HPLC (FIG. 2b)): no activation was observed

Source: patent US20160264558A1, “FLUOROGENIC PROTECTING GROUP” (ISIS INNOVATION LIMITED, priority 2013, published 2016)
